According to ChEMBL document CHEMBL5550095 (Bioorg Med Chem, 2024):
The source made the active and inactive calls. No cut-off for these calls is given here.

Key:
[1] = target: Bifunctional dihydrofolate reductase-thymidylate synthase (Plasmodium falciparum K1) (UniProt P13922); assay: Inhibition of Plasmodium falciparum DHFR
[2] = Half-life in mouse plasma; assay type: ADME, cell-free
[3] = Half-life in mouse liver microsomes; assay type: ADME, Microsome
[4] = Lipophilicity, logD of the compound at pH 7.4; assay type: physicochemical; conditions: buffer
[5] = Selectivity index, ratio of CC50 for human HepG2 cells to EC50 for Plasmodium falciparum K1; assay type: toxicity; conditions: read-out: Ratio CC50/EC50
Plasmodium falciparum = assay: Antiplasmodial activity against Plasmodium falciparum K1 infected in erythrocytes assessed as reduction in parasite DNA after 72 hrs by SYBR Green I fluorescence based assay; assay type: functional, organism-based; conditions: K1, Erythrocyte
[6] = Cytotoxicity against human HepG2 cells incubated for 72 hrs by MTT assay; assay type: toxicity, cell-based
[7] = Inhibition of Plasmodium falciparum PYK-1

Sequence of Bifunctional dihydrofolate reductase-thymidylate synthase (Plasmodium falciparum K1) (P13922 whole entry, looked up): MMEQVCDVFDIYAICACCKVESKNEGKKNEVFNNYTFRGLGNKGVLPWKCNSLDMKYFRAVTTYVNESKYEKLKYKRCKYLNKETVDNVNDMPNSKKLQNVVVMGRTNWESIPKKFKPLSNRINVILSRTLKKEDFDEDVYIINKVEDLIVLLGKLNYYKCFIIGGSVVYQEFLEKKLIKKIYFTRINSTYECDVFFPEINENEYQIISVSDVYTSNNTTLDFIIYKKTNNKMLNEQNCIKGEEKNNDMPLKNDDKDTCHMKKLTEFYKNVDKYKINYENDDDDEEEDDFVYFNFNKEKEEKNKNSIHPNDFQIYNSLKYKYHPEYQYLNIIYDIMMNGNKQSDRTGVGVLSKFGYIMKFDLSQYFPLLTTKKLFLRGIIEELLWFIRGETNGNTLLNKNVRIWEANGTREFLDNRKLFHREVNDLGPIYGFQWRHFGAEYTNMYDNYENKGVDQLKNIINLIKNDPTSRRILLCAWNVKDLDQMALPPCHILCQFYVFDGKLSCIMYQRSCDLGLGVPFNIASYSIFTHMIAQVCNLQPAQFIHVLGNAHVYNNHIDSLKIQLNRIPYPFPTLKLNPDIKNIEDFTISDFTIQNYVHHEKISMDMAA

Row | EC50 (Plasmodium falciparum) [nM] | Compound | selectivity ratio [5] | also measured
1 | – | Clc1ccc(Nc2nc(C(Cl)(Cl)Cl)nc3ccccc23)c(Cl)c1 | – | inhibition [1]: Active; half-life [2]: > 360 min; half-life [3]: 18 min; logD [4]: 3.6
2 | 500 | CCN(CC)CCCC(C)Nc1ccnc2cc(Cl)ccc12 (configuration not stated) [CHLOROQUINE] | 60 | –
3 | 150 | CC(C)(C)OC(=O)NCCCOCCOCCOCCCNCc1ccc2c(Nc3ccc(Cl)cc3Cl)nc(C(Cl)(Cl)Cl)nc2c1 | 21 | CC50 at 72 h [6]: 3.1 µM
4 | 600 | CC(C)(C)OC(=O)NCCOCCOCCNCc1ccc2c(Nc3ccc(Cl)cc3Cl)nc(C(Cl)(Cl)Cl)nc2c1 | 32 | CC50 at 72 h [6]: 19 µM
5 | 4 | C[C@H]1[C@H](OC(=O)CCC(=O)O)O[C@@H]2O[C@@]3(C)CC[C@H]4[C@H](C)CC[C@@H]1[C@@]24OO3 [ARTESUNATE] | – | –
6 | – | O=C(O)C(=O)O [OXALIC ACID] | – | IC50 [7]: 150 µM
7 | – | Cc1ccc(C(=O)Nc2ccc(S(=O)(=O)O)c3cc(S(=O)(=O)O)cc(S(=O)(=O)O)c23)cc1NC(=O)c1cccc(NC(=O)Nc2cccc(C(=O)Nc3cc(C(=O)Nc4ccc(S(=O)(=O)O)c5cc(S(=O)(=O)O)cc(S(=O)(=O)O)c45)ccc3C)c2)c1 [SURAMIN] | – | IC50 [7]: 128 µM

Row | Compound | EC50 (Plasmodium falciparum) [nM] | selectivity ratio [5] | also measured
8 | C[C@H]1c2cccc(O)c2C(=O)C2=C(O)[C@]3(O)C(=O)C(C(N)=O)=C(O)[C@@H](N(C)C)[C@@H]3[C@@H](O)[C@@H]21 [DOXYCYCLINE ANHYDROUS] | 5000 | 4 | –
